Measured values as given in article PMC6155332, “Antimalarials with Benzothiophene Moieties as Aminoquinoline Partners” (Molecules : A Journal of Synthetic Chemistry and Natural …, 2017).
“And” between values parts separate entries of the source, which are not always exact repeats. Identical values can stand only once. Like-named read-outs stand apart in the source and are kept apart here.

Key:
[1] = tested on: P. falciparum D6 (CQ susceptible (CQS) strain); test: Malaria SYBR Green Fluorescence Assay, D6 strain; type: cell-based; details: Plasmodium falciparum; CQ susceptible African D6 clone; read-out: In Vitro Antimalarial Activity (P. falciparum, IC50, nM) D6
[2] = tested on: P. falciparum W2 (CQ resistant (CQR) strain); test: microbe, parasite or virus in culture; type: cell-based, Plasmodium falciparum; details: for RI W2/D6 (resistance index): IC50 W2 / IC50 D6; for IC50: Plasmodium falciparum, W2, read-out: In Vitro Antimalarial Activity (P. falciparum, IC50, nM) W2
[3] = tested on: P. falciparum TM91C235 (Thailand, multidrug-resistant (MDR) strain); test: Malaria SYBR Green Fluorescence Assay, TM91C235 strain; type: cell-based; details: Plasmodium falciparum, read-out: In Vitro Antimalarial Activity (P. falciparum, IC50, nM) C235
P. berghei (ANKA) = test: Modified Thompson test, P. berghei mouse efficacy; type: in vivo, Plasmodium berghei; details: for Parasitemia D25: day 25; for Parasitemia D21: day 21; for Mean Survival Time (MST, Days) / Mice Alive on Day 31 / Mice Dead/Day Died: infected mice; for Parasitemia D24: day 24
Method: In a separate host toxicity study, benzothiophene 25 was subjected to in vivo toxicity evaluation. […]
The P. berghei (ANKA) mouse efficacy tests were conducted using a modified version of the Thompson test. Groups of five mice were inoculated intraperitoneally with erythrocytes infected with P. berghei on day 0. Drugs were suspended in 0.5% hydroxyethylcellulose-0.1% Tween 80 and administered orally once a day beginning on day 3 post infection. […] Cure was defined as survival (with no parasitemia) until day 31 post-treatment. Parasitemia was determined by thin-blood Giemsa-stained smears prepared from mice tail blood of each animal on days 0, 3, 6, 10, 13, 17, 20, 24, 27, and 31 (postinfection). The slides were examined under a light microscope.

[4] = tested on: HepG2 (hepatocellular carcinoma) cell line; test: Compound toxicity in HepG2 cell line; type: cell-based, human; details: for IC50: Homo sapiens, HepG2, hepatocellular carcinoma cells; for SI HepG2/D6 (selectivity index): IC50 HepG2 / IC50 D6
Method: To investigate possible toxicity issues, the synthesized compounds were evaluated in vitro against a human hepatoma cell line (HepG2).
Synthesized aminoquinolines were screened in vitro against P. falciparum strains: CQ and MFQ susceptible strain D6 (clone of Sierra Leone/UNC isolate), CQ resistant but MFQ susceptible strain W2 (clone of Indochina isolate), and CQ and MFQ resistant strain TM91C235 (clone of South East Asian isolate) using the Malaria SYBR Green Fluorescence Assay. Full method details are given in Supplementary Materials I. Assessment of compound toxicity in a HepG2 (hepatocellular carcinoma) cell line followed the protocol described in Ref. [40].

healthy mice = test: Host toxicity study in healthy mice; type: in vivo; details: 160 mg/kg/day × 3 days; for Mice survived in host toxicity study: groups of 5 healthy mice; for Host toxicity (toxic / non-toxic): healthy mice, orally
Method: In a separate host toxicity study, groups of five healthy mice were administered 160 mg/kg/day × 3 days of the investigational compounds and individually monitored for behavior and appearance two times a day for 31 days. No toxicity was defined as survival past day 31 with no overt clinical manifestations of toxicity (changes in behavior and appearance).

[5] = tested on: P. falciparum D6 (CQ susceptible (CQS) strain); design: method as in PMID 26640981, PMID 25801154; details: previously reported compounds; ref [27],[28]; cited from earlier work
[6] = tested on: HepG2 (hepatocellular carcinoma) cell line; design: method as in PMID 26640981; details: previously reported compounds; ref [27]; cited from earlier work
[7] = tested on: P. falciparum W2 (CQ resistant (CQR) strain); design: method as in PMID 26640981; details: previously reported compounds; ref [27]; cited from earlier work
[8] = 40 mg/kg/day p.o., days 3–6 postinfection
[9] = 80 mg/kg/day p.o., days 3–6 postinfection
[10] = 160 mg/kg/day p.o., days 3–5 postinfection
[11] = 160 mg/kg/day p.o., days 3–5 postinfection, 160 mg/kg/day

SMILES | IC50 [1] [nM] | RI W2/D6 (resistance index) [2] | IC50 [2] [nM] | IC50 [3] [nM] | IC50 [4] [nM] | SI HepG2/D6 (selectivity index) [4] | IC50 [5] [nM] | other results
CN(CCCCCCCCNc1ccnc2ccccc12)Cc1ccc(-c2ccc(-c3ccc(C#N)cc3)s2)cc1 [Compound 46] | 7 | 0.7 | 5 | 13 | 2570 | 367 | – | Parasitemia D25 (P. berghei (ANKA); 40 mg/kg/day p.o. days 3–6): 43%; Parasitemia D14 (P. berghei (ANKA); 80 mg/kg/day p.o. days 3–6, day 14): 4.7%; Parasitemia D18 (P. berghei (ANKA); 80 mg/kg/day p.o. days 3–6, day 18): 12%; Parasitemia D21 (P. berghei (ANKA); 80 mg/kg/day p.o. days 3–6): 35%; Parasitemia D25 (P. berghei (ANKA); 80 mg/kg/day p.o. days 3–6): 41%; One mouse survival until day (P. berghei (ANKA); 80 and 40 mg/kg/day × 4 days (both doses)): 25 days; Mean Survival Time (MST, Days) (P. berghei (ANKA); [8]): 15.8 days; Mice Alive on Day 31 (P. berghei (ANKA); [8]): 0/5; Mice Dead/Day Died (P. berghei (ANKA); 40 mg/kg/day p.o., days 3–6 postinfection, 40 mg/kg/day): 1/10 and 2/11 and 1/22 and 1/25; Mean Survival Time (MST, Days) (P. berghei (ANKA); [9]): 14.4 days; Mice Alive on Day 31 (P. berghei (ANKA); [9]): 0/5; Mice Dead/Day Died (P. berghei (ANKA); 80 mg/kg/day p.o., days 3–6 postinfection, 80 mg/kg/day): 1/7 and 1/12 and 1/13 and 1/14 and 1/26; Mice survived in host toxicity study (healthy mice): 5; Host toxicity (toxic / non-toxic) (healthy mice): non-toxic
COc1ccc(-c2ccc(CNCCCNc3ccnc4cc(Cl)ccc34)s2)cc1 [Compound 5] | – | – | – | – | – | – | 7 | –
CC(CCCNCc1ccc(-c2csc3ccc(F)cc23)cc1)Nc1ccnc2cc(Cl)ccc12 (stereo not shown) [Compound 25] | 71 | 0.2 | 12 | 121 | 2090 | 29 | – | Parasitemia D21 (P. berghei (ANKA); 160 mg/kg/day p.o. days 3–5): 2.7%; Parasitemia D24 (P. berghei (ANKA); 160 mg/kg/day p.o. days 3–5): 52%; Parasitemia D28 (P. berghei (ANKA); 160 mg/kg/day p.o. days 3–5, day 28): 72%; Parasitemia D31 (P. berghei (ANKA); 160 mg/kg/day p.o. days 3–5, day 31 (end of study)): 79%; Mean Survival Time (MST, Days) (P. berghei (ANKA); [10]): 20.8 days; Mice Alive on Day 31 (P. berghei (ANKA); [11]): only one surviving 31 days but with parasitemia and 1/4; Mice Dead/Day Died (P. berghei (ANKA); [11]): 2/17 and 1/18; Mice survived in host toxicity study (healthy mice): 5; Host toxicity (toxic / non-toxic) (healthy mice): non-toxic
N#Cc1ccc2scc(CNCCCNc3ccnc4cc(Cl)ccc34)c2c1 [Compound 3] | – | – | – | – | – | – | 5 | –
N#Cc1ccc(-c2ccc(CNCCCNc3ccnc4cc(Cl)ccc34)s2)cc1 [Compound 4] | – | – | – | – | – | – | 2 | –
N#Cc1ccc(-c2ccc(-c3ccc(CNCCCCNc4ccnc5cc(Cl)ccc45)cc3)s2)cc1 [Compound 39] | 59 | 0.8 | 46 | 52 | > 5790 | – | – | –
Clc1ccc2c(NCCCNCc3csc4ccccc34)ccnc2c1 [Compound 53] | – | – | – | – | – | – | 7 | SI(HepG2/D6) [6]: 1111; Host toxicity (toxic / non-toxic) (healthy mice): toxic; IC50 [7]: 24 nM
Cc1ccc(-c2ccc(CNCCNc3ccnc4cc(Cl)ccc34)s2)cc1 [Compound 6] | – | – | – | – | – | – | 5 | –
Fc1ccc2scc(CNCCCCNc3ccnc4cc(Cl)ccc34)c2c1 [Compound 2] | – | – | – | – | – | – | 10 | –
CC(CCCN(C)Cc1ccc(-c2csc3ccc(F)cc23)cc1)Nc1ccnc2ccccc12 (stereo not shown) [Compound 27] | 29 | 4.3 | 126 | 126 | 5000 | 173 | – | –
N#Cc1ccc2c(-c3ccc(CNCCCCCCNc4ccnc5ccccc45)cc3)csc2c1 [Compound 32] | 55 | 1.8 | 102 | 29 | 2050 | 37 | – | –
Fc1ccc2scc(-c3ccc(CNCCCNc4ccnc5ccccc45)cc3)c2c1 [Compound 23] | 28 | 5.1 | 144 | 111 | 3820 | 136 | – | –
c1ccc2sc(CNCCCNc3ccnc4ccccc34)cc2c1 [Compound 8] | 20 | 5.2 | 104 | 107 | 8870 | 440 | – | –
Fc1ccc2c(CNCCCNc3ccnc4ccccc34)csc2c1 [Compound 12] | 21 | 8.8 | 185 | 191 | 4480 | 211 | – | –
N#Cc1ccc2scc(-c3ccc(CNCCCCCCNc4ccnc5ccccc45)cc3)c2c1 [Compound 30] | 12 | 6.8 | 81 | 51 | 1980 | 162 | – | –
CC(CCCNCc1ccc(-c2csc3ccc(C#N)cc23)cc1)Nc1ccnc2ccccc12 (stereo not shown) [Compound 29] | 13 | 3.4 | 44 | 46 | 2410 | 192 | – | –
N#Cc1ccc2c(-c3ccc(CNCCCCNc4ccnc5ccccc45)cc3)csc2c1 [Compound 31] | 13 | 15.2 | 197 | 93 | 3580 | 276 | – | –
N#Cc1ccc(-c2ccc(-c3ccc(CNCCCCCCNc4ccnc5cc(Cl)ccc45)cc3)s2)cc1 [Compound 41] | 27 | 0.5 | 13 | 20 | 2420 | 89 | – | –
N#Cc1ccc(-c2ccc(-c3ccc(CNCCCCCCCCNc4ccnc5cc(Cl)ccc45)cc3)s2)cc1 [Compound 42] | 55 | 0.2 | 12 | 30 | 2090 | 38 | – | Parasitemia D24 (P. berghei (ANKA); 160 mg/kg/day p.o. days 3–5): 75%; Mean Survival Time (MST, Days) (P. berghei (ANKA); [10]): 18.6 days; Mice Alive on Day 31 (P. berghei (ANKA); [10]): 0/5; Mice Dead/Day Died (P. berghei (ANKA); [11]): 1/9 and 1/13 and 1/20 and 1/23 and 1/28; Mice survived in host toxicity study (healthy mice): 5; Host toxicity (toxic / non-toxic) (healthy mice): non-toxic
C#Cc1ccc(-c2ccc(-c3ccc(CNCCCCCCCCNc4ccnc5ccccc45)cc3)s2)cc1 [Compound 52] | 177 | 1.5 | 259 | 274 | 9230 | 52 | – | –
